The subject of experiment [1] is TF-1 cells. Briefly: In-vitro bioassay in TF1 cell lines (proliferation, alamar Blue). Conditions: treated 48 h without rhGMCSF, normalized to cell control. For orientation: The colour change of resazurin is a common sign of viable cells or microbes.
Experiment [2] deals with TF-1 cells. Conditions: normalised to untreated cells (CC), triplicates. As for the experimental part: For RNA-seq analysis, TF-1 cells were either treated with the positive control GMCSF (GM) or with succinate (E01). Untreated TF-1 cells (CC) were used as a control to determine basal gene expression. RNA-seq was performed in triplicates from all the three groups. The gene expression from E01 or GM group was normalised to the expression of CC.

The test system of the next experiment is WI38 cells. The following applies: WI38 fibroblasts, mitogen-deprived medium (0.1% FBS), 48 h in presence of succinate.
For another experiment, the system named is platelet counts. The following applies: rats, 100 mg/kg twice daily P.O. for 7 days, versus water control. As for the experimental part:
A preliminary study was conducted in rats using pure succinic acid (from commercial source). Six animals were used in each group (control and treated). The treated group received a dose of 100 mg/kg succinic acid twice daily P.O. whereas the control group received water of same volume as in treated twice daily. CBC (Complete Blood counts) was performed from the blood withdrawn from individual rats.

On to `O=C([O-])CCC(=O)[O-].[Ca+2]` [Ca salt of succinic acid], for which, in the experiment with TF-1 cells [1], the “cellular proliferation in TF-1 cells” value is “showed proliferation activity”.

On to `O=C([O-])CCC(=O)[O-].[Mg+2]` [Mg salt of succinic acid], for which the “cellular proliferation in TF-1 cells” value in the experiment on TF-1 cells [1] was “showed proliferation activity”.

Consider `O=C([O-])CCC(=O)[O-].[Na+].[Na+]` [Sodium Succinate], for which the “cellular proliferation in TF-1 cells” value in the experiment with TF-1 cells [1] (listed as Na salt of succinic acid) is given as “showed proliferation activity”.

Consider `O=C(O)CCC(=O)O` [succinate], for which the “gene expression changes (RNA-seq)” value in the experiment with TF-1 cells [2] is “Several genes related to platelet differentiation pathway in succinate treated cells were identified”. Moreover, the “cell cycle entry from quiescence” value in the experiment on WI38 cells is “entered in the cell cycle even in the absence of mitogens”.

As for `O=C(O)CCC(=O)O` [succinic acid, Succinic acid], the platelet counts entry in the experiment on platelet counts is on record as “substantially increase the platelet counts”. For the same compound, the “cellular proliferation in TF-1 cells” value with TF-1 cells [1] is recorded as “dose dependent proliferation was observed”.

(Values after patent US20210267923A1, “SUCCINIC ACID AND DERIVATIVES FOR THE TREATMENT OF HAEMOTOLOGICAL DISORDERS” (ENZENE BIOSCIENCES LIMITED, priority 2018, published 2021).)
